Laboratory results reported in patent US9464113B2, “Anti-heparan sulfate peptides that block herpes simplex virus infection in vivo” (The Board of Trustees of the University of Illinois, priority 2010, dated 2016).
No end group written: not given here.

Assays:
Assay type in all cases: cell-based, herpes simplex virus type-1
[1] = tested on: HSV-1(K26GFP); assay: HSV-1(K26GFP) binding to human CF (microscopy, fluorescence reader, flow cytometry); conditions: for virus binding by flow cytometry: 60 min pre-treatment, 4° C. (FIG. 6C)
Experimental: Flow cytometry was performed to detect the effect of G2 peptide on GFP-HSV-1 binding to human CF. Monolayers of approximately 5×10^6 CF were pre-treated with G2 peptide for 60 min followed by incubation with GFP-expressing HSV-1 (K26GFP) at 4° C. A control peptide treated and untreated cells were similarly incubated with HSV-1 GFP virions. Uninfected CF were used as background negative control. GFP expression from the viral capsid on cell surface was examined by a flowcytometer (MoFlo).
Cultured CF were pre-incubated with 0.5 mM G2 peptide or control-peptide (cp) and then infected with a GFP-tagged HSV-1(K26GFP) virus. Cells were fixed at 60 min post-infection and stained for F-actin and the nucleus (DAPI). GFP-expressing HSV-1(K26GFP) binding to CF in presence and absence of G2 peptides was examined by fluorescence microscopy (FIG. 6A). CF were grown in collagen coated chamber slides and incubated at room temperature for 60 min with G2 (+) or control Cp (G2 (−)) peptide. This was followed by the incubation of the cells in cold with GFP-expressing HSV-1(K26GFP) for 30 min and washing of unbound virioins with PBS. Cells were fixed, stained with phalloidin for F-actin and DAPI for nuclei and examined by a fluorescence microscope (Leica, SP2). The presence of the virus was shown by detecting GFP.
To examine this effect on a population of 10^5 cells, GFP intensity as an indicator of virus binding, was measured after incubation with the virus in cold and rigorous washing of the cells afterwards (FIG. 6B). Relative virus binding to CF was estimated by fluorescence measurements. Cultured CF were pre-incubated with G2 and control peptide (Cp) for 60-min before ice-cold incubation with GFP-expressing HSV-1 virus for 30 min. Cells were washed 3 times and viruses remaining on cell surfaces were assayed for GFP fluorescent intensity using a fluorescence reader (Tecan).
(§1) GFP-expressing HSV-1(K26GFP) intensity as a surrogate for virus binding was quantified in presence G2 or control peptide (abbreviated as C) by flow cytometry (FIG. 6C). The cell/virus incubation was performed as described above. G2 peptides block HSV-1 replication into cultured human corneal fibroblasts (CF) (FIG. 6D). Cultured CF were pre-incubated with G2 or mock-treated (Cp) before infection with HSV-1(K26GFP) virus for 6 h. Viral replications in CF were quantified 0-36 h post-infection by measuring GFP fluorescent intensity using a fluorescence reader (Tecan). The data shown are the means of triplicate measures and are representative of three independent experiments. Asterisks indicate significant difference from other treatments (P<0.01, t test), error bars represent standard deviation (SD).
Primary cultures of human CF pretreated with G2 peptide or control peptide (C) were analyzed for HSV-1(K26GFP) binding. […]

[2] = tested on: HSV-1 glycoproteins (gB, gD, gH-gL) induced membrane fusion; assay: HSV-1 glycoprotein induced cell-to-cell fusion assay, human CF target cells
Text: CHO-K1 “effector” cells (grown in F-12 Ham, Invitrogen) were co-transfected with plasmids expressing four HSV-1(KOS) glycoproteins: pPEP98 (gB), pPEP99 (gD), pPEP100 (gH), and pPEP101 (gL), along with the plasmid pT7EMCLuc that expresses firefly luciferase gene under transcriptional control of the T7 promoter. Pertel et al., Virology 279:313-324 (2001). Wild-type CHO-K1 cells, which express cell-surface HS but lack functional gD receptors, were transiently transfected with HSV-1 entry receptors. Wild-type CHO-K1 cultured cells expressing HSV-1 entry receptors or naturally susceptible cells (human CF) considered as “target cells” were co-transfected with pCAGT7 that expresses T7 RNA polymerase using chicken actin promoter and CMV enhancer. Tiwari et al., FEBS Letters 581:4468-4472 (2007). Untreated effector cells expressing pT7EMCLuc and HSV-1 essential glycoproteins, and target cells expressing gD receptors transfected with T7 RNA polymerase, were used as positive controls. G2 or control peptide-treated target cells were then co-cultivated (1:1 ratio) for 18 h with effector cells for fusion. Activation of a reporter luciferase gene—as a measure of cell fusion—was examined using reporter lysis assay (Promega) at 24 hr post mixing.
Since G2 was isolated against 3-OS HS, which can mediate viral penetration by promoting membrane fusion (Tiwari et al., J. Gen. Virol. 85:805-809 (2004)), the ability of G2 to block HSV-1 glycoprotein-mediated membrane fusion was tested. Pertel et al., Virology 279:313-324 (2001). The same membrane fusion is used during polykaryocytes formation and cell-to-cell spread. Tiwari et al., FEBS Letters 581:4468-4472 (2007) and Tiwari et al., Biochemical and Biophysical Research Communications 390:382-387 (2009). […]
(§2) Control effector cells (T7 polymerase and gD, gH-gL only) (−) were also pre-incubated with G2 for the same duration. […] Membrane fusion as a surrogate for viral spread was detected by monitoring luciferase activity (FIGS. 7A and 7C). Relative luciferase units (RLUs) were determined using a Sirius luminometer (Berthold detection systems). […]

[3] = tested on: HSV-1 glycoproteins (gB, gD, gH-gL) induced membrane fusion; assay: HSV-1 glycoprotein induced cell-to-cell fusion assay, 3-OST-3-expressing CHO-K1 target cells
Text: CHO-K1 “effector” cells (grown in F-12 Ham, Invitrogen) were co-transfected with plasmids expressing four HSV-1(KOS) glycoproteins: pPEP98 (gB), pPEP99 (gD), pPEP100 (gH), and pPEP101 (gL), along with the plasmid pT7EMCLuc that expresses firefly luciferase gene under transcriptional control of the T7 promoter. Pertel et al., Virology 279:313-324 (2001). Wild-type CHO-K1 cells, which express cell-surface HS but lack functional gD receptors, were transiently transfected with HSV-1 entry receptors. Wild-type CHO-K1 cultured cells expressing HSV-1 entry receptors or naturally susceptible cells (human CF) considered as “target cells” were co-transfected with pCAGT7 that expresses T7 RNA polymerase using chicken actin promoter and CMV enhancer. Tiwari et al., FEBS Letters 581:4468-4472 (2007). Untreated effector cells expressing pT7EMCLuc and HSV-1 essential glycoproteins, and target cells expressing gD receptors transfected with T7 RNA polymerase, were used as positive controls. […]
as §2

[4] = tested on: HSV-1(K26GFP); assay: HSV-1(K26GFP) replication in human CF (GFP fluorescence over time); conditions: 0-36 h post-infection (FIG. 6D)
Experimental: as §1
To further confirm that blocking of viral attachment results in a reduction of viral replication, GFP fluorescence was measured as a function of time (K26GFP) (Desai and Person J. Virol. 72:7563-7568 (1998)) in both G2- and mock-treated cells.

Sequence	virus binding by flow cytometry [1]	blocking of membrane fusion ([2]; statement only, target cells not stated, no data shown)	blocking of membrane fusion (luciferase activity) ([2]; human CF (FIG. 7A))	syncytia (polykaryocyte) formation, Giemsa staining ([2]; human CF (FIG. 7B))	blocking of membrane fusion (luciferase activity) ([3]; 3-OST-3-expressing CHO-K1 cells (FIG. 7C))	syncytia (polykaryocyte) formation, Giemsa staining ([3]; 3-OST-3-expressing CHO-K1 cells (FIG. 7D))	viral replication (GFP intensity over time) [4]	virus attachment (fluorescence microscopy) ([1]; 0.5 mM, 60 min, virus in cold 30 min (FIG. 6A))	relative virus binding (GFP fluorescent intensity) ([1]; fluorescence reader (FIG. 6B))
RVCGSIGKEVLG [Cp, reference compound]	low level inhibitory activity	–	–	–	–	–	–	–	–
LRSRTKIIRIRH [G1, LRSRTKIIRIRH]	–	does not appear to block membrane fusion	–	–	–	–	–	–	–
MPRRRRIRRRQK [G2, MPRRRRIRRRQK]	virus failed to bind	–	very effective in blocking membrane fusion	loss of syncytia formation	very effective in blocking membrane fusion	loss of syncytia formation	substantial reduction of viral replication	resisted virus attachment	binding was significantly higher in Cp-treated compared to G2 peptide treated cells
